Data: US12365696B2, “Small-molecule focal adhesion kinase (FAK) inhibitors” (DANA-FARBER CANCER INSTITUTE, INC., priority 2019, dated 2025)
Where “and” joins values, the source holds several entries; their conditions need not be identical. Equal values may be shown once. Read-outs that look alike come from different tables or passages of the source.

Columns and labels:
YES = YES (Homo sapiens (Human), UniProt P07947); assay: KINOMEscan; format: binding; settings: 10000 nM, read-out: Percent Control
YES, sequence (P07947 whole entry): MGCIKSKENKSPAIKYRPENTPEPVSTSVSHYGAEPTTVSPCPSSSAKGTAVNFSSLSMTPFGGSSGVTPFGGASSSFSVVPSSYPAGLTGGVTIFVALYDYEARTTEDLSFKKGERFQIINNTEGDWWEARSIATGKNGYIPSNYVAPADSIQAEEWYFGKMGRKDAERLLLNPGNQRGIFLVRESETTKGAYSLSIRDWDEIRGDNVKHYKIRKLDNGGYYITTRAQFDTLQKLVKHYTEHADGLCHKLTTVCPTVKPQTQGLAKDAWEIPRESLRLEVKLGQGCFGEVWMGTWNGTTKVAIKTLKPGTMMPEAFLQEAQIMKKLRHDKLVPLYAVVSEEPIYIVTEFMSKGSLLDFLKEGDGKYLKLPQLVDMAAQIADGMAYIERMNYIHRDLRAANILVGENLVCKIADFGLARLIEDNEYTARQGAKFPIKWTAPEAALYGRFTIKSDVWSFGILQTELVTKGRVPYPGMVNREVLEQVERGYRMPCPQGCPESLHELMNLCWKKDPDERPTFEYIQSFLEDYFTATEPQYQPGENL

[1] = biological target: RSK2(Kin.Dom.1-N-terminal) (Homo sapiens (Human), UniProt P51812); assay: KINOMEscan; format: binding; settings: 10000 nM, read-out: Percent Control
403 non-mutant kinases = assay: KINOMEscan panel selectivity (S-Score, number of kinases engaged); format: binding; settings: 10 μM; for S-Score (35): non-mutant kinases below 35% control divided by kinases examined
Protocol: Selectivity profiling of compound 3 among a panel of kinases was performed with KINOMEscan® as set forth below. The KINOMEscan® screening platform employs an active site-directed competition binding assay to quantitatively measure interactions between a test compound, e.g., compound 3, and more than 450 kinases and disease-relevant mutant variants.
Screening of compound 3 was conducted at a concentration of 10 μM by Eurofins DiscoverX. Activity is measured as the ability of compound 3 to displace the kinase from a solid support relative to a negative control (i.e., DMSO). The output is % control.
The selectivity score (S-Score) refers to the number of non-mutant kinases that display a % control below a specific number, divided by the number of non-mutant kinases that were examined.
Selectivity profiling of compound 5 among a panel of kinases was performed with KINOMEscan® as set forth below.

S6K1 = S6K1 (Homo sapiens (Human), UniProt P23443); assay: KINOMEscan; format: binding; settings: S6K1, 10000 nM; read-out: Percent Control
S6K1, sequence (P23443 whole entry): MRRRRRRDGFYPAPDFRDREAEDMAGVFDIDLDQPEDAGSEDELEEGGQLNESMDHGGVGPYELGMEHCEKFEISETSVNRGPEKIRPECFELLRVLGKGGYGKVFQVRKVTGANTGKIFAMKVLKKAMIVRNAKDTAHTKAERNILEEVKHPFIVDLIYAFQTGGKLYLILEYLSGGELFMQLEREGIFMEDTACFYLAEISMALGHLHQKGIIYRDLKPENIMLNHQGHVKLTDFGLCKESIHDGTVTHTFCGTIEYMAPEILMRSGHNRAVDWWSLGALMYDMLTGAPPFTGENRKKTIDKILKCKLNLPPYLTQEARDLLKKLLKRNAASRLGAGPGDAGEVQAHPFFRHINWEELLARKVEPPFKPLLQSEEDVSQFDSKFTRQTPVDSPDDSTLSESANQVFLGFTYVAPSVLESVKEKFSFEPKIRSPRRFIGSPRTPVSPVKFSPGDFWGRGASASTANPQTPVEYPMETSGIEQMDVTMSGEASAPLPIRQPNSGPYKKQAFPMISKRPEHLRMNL

PIK3CG = PIK3CG (Homo sapiens (Human), UniProt P48736); assay: KINOMEscan; format: binding; settings: 10000 nM, read-out: Percent Control
CDK4 = CDK4 (Homo sapiens (Human), UniProt P11802); assay: KINOMEscan; format: binding; settings: CDK4, 10000 nM; read-out: Percent Control
PFCDPK1(P. falciparum) = PFCDPK1(P. falciparum) (Plasmodium falciparum (isolate 3D7), UniProt P62344); assay: KINOMEscan; format: binding; settings: 10000 nM, read-out: Percent Control
PIK3CA(I800L) = PIK3CA(I800L) (Homo sapiens (Human), UniProt P42336, I800L); assay: KINOMEscan; format: binding; settings: 10000 nM, read-out: Percent Control
PIK3CA(I800L), sequence (P42336 whole entry I800L): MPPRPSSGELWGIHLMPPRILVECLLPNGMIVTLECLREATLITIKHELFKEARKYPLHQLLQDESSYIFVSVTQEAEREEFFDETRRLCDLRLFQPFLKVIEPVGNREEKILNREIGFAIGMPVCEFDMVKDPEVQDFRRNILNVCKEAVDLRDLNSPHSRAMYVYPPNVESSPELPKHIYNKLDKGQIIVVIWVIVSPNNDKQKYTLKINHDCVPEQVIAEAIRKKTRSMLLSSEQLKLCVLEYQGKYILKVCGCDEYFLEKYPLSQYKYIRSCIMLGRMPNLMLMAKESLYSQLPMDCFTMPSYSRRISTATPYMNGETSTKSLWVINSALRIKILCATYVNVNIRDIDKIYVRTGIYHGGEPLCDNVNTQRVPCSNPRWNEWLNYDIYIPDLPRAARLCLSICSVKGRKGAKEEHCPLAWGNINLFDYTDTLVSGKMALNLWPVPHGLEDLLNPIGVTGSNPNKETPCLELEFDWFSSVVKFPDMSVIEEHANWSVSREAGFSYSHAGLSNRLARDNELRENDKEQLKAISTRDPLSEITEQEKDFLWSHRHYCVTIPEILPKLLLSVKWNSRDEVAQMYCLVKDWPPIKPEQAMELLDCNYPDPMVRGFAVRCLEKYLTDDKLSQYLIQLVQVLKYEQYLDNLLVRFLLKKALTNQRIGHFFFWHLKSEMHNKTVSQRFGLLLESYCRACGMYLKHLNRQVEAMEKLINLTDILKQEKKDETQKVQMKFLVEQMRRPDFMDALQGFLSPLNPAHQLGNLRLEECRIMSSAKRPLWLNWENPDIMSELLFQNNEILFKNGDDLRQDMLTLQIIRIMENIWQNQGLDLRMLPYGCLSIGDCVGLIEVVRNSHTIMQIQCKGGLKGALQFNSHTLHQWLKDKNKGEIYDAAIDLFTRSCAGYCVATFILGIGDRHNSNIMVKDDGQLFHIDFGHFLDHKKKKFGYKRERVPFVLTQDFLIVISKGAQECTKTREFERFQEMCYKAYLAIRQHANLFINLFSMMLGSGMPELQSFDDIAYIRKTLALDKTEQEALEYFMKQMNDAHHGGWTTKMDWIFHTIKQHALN

PAK6 = PAK6 (Homo sapiens (Human), UniProt Q9NQU5); assay: KINOMEscan; format: binding; settings: PAK6, 10000 nM; read-out: Percent Control
LRRK2(G2019S) = LRRK2(G2019S) (Homo sapiens (Human), UniProt Q5S007, G2019S); assay: KINOMEscan; format: binding; settings: 10000 nM, read-out: Percent Control
WNK3 = WNK3 (Homo sapiens (Human), UniProt Q9BYP7); assay: KINOMEscan; format: binding; settings: WNK3, 10000 nM; read-out: Percent Control
STK33 = STK33 (Homo sapiens (Human), UniProt Q9BYT3); assay: KINOMEscan; format: binding; settings: STK33, 10000 nM; read-out: Percent Control
CLK2 = CLK2 (Homo sapiens (Human), UniProt P49760); assay: KINOMEscan; format: binding; settings: CLK2, 10000 nM; read-out: Percent Control
CLK2, sequence (P49760 whole entry): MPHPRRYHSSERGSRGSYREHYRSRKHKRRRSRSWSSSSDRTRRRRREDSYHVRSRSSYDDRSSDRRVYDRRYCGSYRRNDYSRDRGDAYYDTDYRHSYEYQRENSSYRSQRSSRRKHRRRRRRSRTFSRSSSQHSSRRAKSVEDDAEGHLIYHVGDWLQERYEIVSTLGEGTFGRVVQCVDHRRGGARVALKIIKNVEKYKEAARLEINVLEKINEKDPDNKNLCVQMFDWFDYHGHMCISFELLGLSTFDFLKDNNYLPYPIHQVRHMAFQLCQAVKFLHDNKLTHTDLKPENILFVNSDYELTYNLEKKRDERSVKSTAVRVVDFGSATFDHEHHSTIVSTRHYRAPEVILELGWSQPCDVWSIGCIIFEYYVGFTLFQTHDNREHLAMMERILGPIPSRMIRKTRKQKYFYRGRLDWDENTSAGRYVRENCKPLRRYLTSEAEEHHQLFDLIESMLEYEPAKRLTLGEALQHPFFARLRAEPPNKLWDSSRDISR

FGFR2 = FGFR2 (Homo sapiens (Human), UniProt P21802); assay: KINOMEscan; format: binding; settings: FGFR2, 10000 nM; read-out: Percent Control
FGFR2, sequence (P21802 22-821): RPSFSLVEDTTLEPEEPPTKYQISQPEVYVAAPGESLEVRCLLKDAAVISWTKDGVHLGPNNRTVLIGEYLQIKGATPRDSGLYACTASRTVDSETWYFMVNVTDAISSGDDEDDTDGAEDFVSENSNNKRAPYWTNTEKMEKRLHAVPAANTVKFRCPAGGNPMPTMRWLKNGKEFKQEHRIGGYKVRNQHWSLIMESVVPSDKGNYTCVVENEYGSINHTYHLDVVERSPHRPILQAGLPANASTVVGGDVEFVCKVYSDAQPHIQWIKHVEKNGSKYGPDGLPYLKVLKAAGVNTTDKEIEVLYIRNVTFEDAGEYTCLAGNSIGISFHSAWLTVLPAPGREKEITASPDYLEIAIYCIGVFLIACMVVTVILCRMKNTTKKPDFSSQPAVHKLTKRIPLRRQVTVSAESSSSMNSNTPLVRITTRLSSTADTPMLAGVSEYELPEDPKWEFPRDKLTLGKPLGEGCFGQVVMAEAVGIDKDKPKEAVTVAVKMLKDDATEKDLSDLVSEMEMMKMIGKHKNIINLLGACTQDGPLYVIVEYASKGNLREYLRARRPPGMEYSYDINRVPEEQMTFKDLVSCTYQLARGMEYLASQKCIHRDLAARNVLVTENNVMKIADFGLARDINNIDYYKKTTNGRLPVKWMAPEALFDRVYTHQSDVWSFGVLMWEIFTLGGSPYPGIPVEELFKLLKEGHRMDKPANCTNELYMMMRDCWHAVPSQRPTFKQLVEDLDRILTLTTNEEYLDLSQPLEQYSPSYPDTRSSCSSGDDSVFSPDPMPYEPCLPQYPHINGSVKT

MYO3A = MYO3A (Homo sapiens (Human), UniProt Q8NEV4); assay: KINOMEscan; format: binding; settings: 10000 nM, read-out: Percent Control
BMX = BMX (Homo sapiens (Human), UniProt P51813); assay: KINOMEscan; format: binding; settings: 10000 nM, read-out: Percent Control
ERK1 = ERK1 (Homo sapiens (Human), UniProt P27361); assay: KINOMEscan; format: binding; settings: ERK1, 10000 nM; read-out: Percent Control
CDKL3 = CDKL3 (Homo sapiens (Human), UniProt Q8IVW4); assay: KINOMEscan; format: binding; settings: CDKL3, 10000 nM; read-out: Percent Control
ACVRL1 = ACVRL1 (Homo sapiens (Human), UniProt P37023); assay: KINOMEscan; format: binding; settings: ACVRL1, 10000 nM; read-out: Percent Control
ACVRL1, sequence (P37023 22-503): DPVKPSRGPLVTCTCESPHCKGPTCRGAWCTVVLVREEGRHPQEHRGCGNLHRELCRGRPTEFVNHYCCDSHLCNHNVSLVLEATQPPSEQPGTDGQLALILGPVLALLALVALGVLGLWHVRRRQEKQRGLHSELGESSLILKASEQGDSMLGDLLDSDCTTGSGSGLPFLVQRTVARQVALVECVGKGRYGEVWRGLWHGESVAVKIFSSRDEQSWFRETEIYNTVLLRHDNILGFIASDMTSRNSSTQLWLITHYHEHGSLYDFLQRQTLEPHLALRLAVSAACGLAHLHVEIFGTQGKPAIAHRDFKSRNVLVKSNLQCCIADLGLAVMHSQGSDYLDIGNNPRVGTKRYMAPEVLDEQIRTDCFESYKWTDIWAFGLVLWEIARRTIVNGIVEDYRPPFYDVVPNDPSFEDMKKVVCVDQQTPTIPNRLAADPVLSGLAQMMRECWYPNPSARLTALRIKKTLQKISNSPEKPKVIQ

PTK2 (FAK) = PTK2 (FAK) (Homo sapiens (Human), UniProt Q05397); assay: Z′-LYTE kinase assay (SelectScreen Biochemical Kinase Profiling), enzymatic IC50
PTK2 (FAK), sequence (Q05397 whole entry): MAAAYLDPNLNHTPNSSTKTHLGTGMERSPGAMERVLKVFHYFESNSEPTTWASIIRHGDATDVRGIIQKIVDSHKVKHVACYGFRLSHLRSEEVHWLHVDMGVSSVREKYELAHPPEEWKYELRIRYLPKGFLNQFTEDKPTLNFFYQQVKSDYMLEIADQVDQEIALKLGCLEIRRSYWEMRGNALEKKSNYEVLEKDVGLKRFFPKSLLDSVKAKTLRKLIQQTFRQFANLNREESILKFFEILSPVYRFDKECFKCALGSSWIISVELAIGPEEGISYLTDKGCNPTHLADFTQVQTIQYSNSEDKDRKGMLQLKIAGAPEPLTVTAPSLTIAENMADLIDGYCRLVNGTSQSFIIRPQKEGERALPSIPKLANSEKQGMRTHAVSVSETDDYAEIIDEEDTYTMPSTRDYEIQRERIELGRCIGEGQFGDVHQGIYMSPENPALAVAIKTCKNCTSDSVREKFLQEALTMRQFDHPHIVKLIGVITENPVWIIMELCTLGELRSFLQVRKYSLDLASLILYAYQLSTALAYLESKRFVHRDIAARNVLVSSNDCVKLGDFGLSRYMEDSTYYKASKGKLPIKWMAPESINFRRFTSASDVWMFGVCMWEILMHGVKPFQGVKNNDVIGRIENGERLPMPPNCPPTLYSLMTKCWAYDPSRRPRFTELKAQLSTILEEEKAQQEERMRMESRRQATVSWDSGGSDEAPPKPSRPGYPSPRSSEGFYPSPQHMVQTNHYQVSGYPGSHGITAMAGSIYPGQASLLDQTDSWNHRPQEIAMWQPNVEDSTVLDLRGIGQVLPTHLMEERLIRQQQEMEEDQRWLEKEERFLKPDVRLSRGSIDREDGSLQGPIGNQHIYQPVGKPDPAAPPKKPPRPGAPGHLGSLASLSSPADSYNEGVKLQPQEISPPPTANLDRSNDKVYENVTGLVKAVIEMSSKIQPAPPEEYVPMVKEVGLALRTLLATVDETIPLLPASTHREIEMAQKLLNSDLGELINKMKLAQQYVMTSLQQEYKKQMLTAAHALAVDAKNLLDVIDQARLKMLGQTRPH

MAK = MAK (Homo sapiens (Human), UniProt P20794); assay: KINOMEscan; format: binding; settings: 10000 nM, read-out: Percent Control
MARK2 = MARK2 (Homo sapiens (Human), UniProt Q7KZI7); assay: KINOMEscan; format: binding; settings: MARK2, 10000 nM; read-out: Percent Control
[2] = enzymatic, Z′-LYTE, read-out: FAK IC50

SMILES	remaining binding at 10 µM (YES)	remaining binding at 10 µM [1]	S-Score (35) (403 non-mutant kinases)	remaining binding at 10 µM (S6K1)	remaining binding at 10 µM (PIK3CG)	remaining binding at 10 µM (CDK4)	remaining binding at 10 µM (PFCDPK1(P. falciparum))	remaining binding at 10 µM (PIK3CA(I800L))	remaining binding at 10 µM (PAK6)	remaining binding at 10 µM (LRRK2(G2019S))	remaining binding at 10 µM (WNK3)	remaining binding at 10 µM (STK33)	remaining binding at 10 µM (CLK2)	remaining binding at 10 µM (FGFR2)	remaining binding at 10 µM (MYO3A)	remaining binding at 10 µM (BMX)	remaining binding at 10 µM (ERK1)	remaining binding at 10 µM (CDKL3)	remaining binding at 10 µM (ACVRL1)	IC50 (PTK2 (FAK); [2])	also measured
COc1cc(N2CCC(N3CCN(C)CC3)CC2)ccc1Nc1ncc2c(n1)N(C)c1sc(C)nc1C(=O)N2 [Compound 3, 6-((2-methoxy-4-(4-(4-methylpiperazin-1-yl)piperidin-1-yl)phenyl)amino)-2,4-dimethyl-4,9-dihydro-10H-pyrimido[5,4-b]thiazolo[5,4-e][1,4]diazepin-10-one]	72%	99%	0.02	100%	93%	100%	100%	100%	97%	100%	100%	84%	72%	80%	79%	76%	88%	75%	96%	62 nM and 62.2 nM	number of non-mutant kinases displaying <35% relative to control (403 non-mutant kinases; out of 403 non-mutant kinases): five; number of other kinases engaged with greater than 65% inhibition (403 non-mutant kinases; panel of 403 kinases): 4; remaining binding at 10 µM (MAK): 71%; remaining binding at 10 µM (MARK2): 100%
COc1cc(N2CCC(N3CCN(C)CC3)CC2)ccc1Nc1ncc2c(n1)N(C)c1sc(C)nc1C(=O)N2C [Compound 5, 6-((2-methoxy-4-(4-(4-methylpiperazin-1-yl)piperidin-1-yl)phenyl)amino)-2,4,9-trimethyl-4,9-dihydro-10H-pyrimido[5,4-b]thiazolo[5,4-e][1,4]diazepin-10-one]	97%	97%	0.042	100%	88%	100%	99%	70%	100%	21%	97%	10%	100%	100%	100%	90%	92%	100%	99%	18.3 nM	S(1) (403 non-mutant kinases): 0.005; S(10) (403 non-mutant kinases): 0.012; IC50 (PTK2 (FAK); FAK, Invitrogen, read-out: Biochemical IC50): 20.2 ± 1.9 nM; remaining binding at 10 µM (MAK): 100%; remaining binding at 10 µM (MARK2): 100%
